How the values were obtained:
mu opiate receptor (MOR) = biological target: T1, mu opiate receptor (MOR) (Rattus norvegicus, UniProt P33535); test: MOR agonist activity using [35S]GTPgS binding assay in striatal membranes; format: biochemical; details: Series C-2 table
T1 construct: from tissue; host or cells: striatum (membrane preparation)
Outline: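 Rat striatal membranes incubated 5 min at 30 °C in pH 7.5 HEPES buffer with 100 mM NaCl, 1 mM MgCl2 and 0.5 nM [35S]GTPgS, then 5 min with compound. Gαo-bound [35S]GTPgS isolated by immunoprecipitation and counted by liquid scintillation.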

tau = test: Tau phosphorylation in Ab42-treated organotypic frontocortical slice cultures; format: cell-based; details: Ab42-treated rat organotypic frontocortical slice cultures
Experimental: Rat brain slice organotypic culture methods were modified from those published previously. [Adamchik et al., Brain Res Brain Res Protoc 5:153-158 (2000).] FCX slices ([…]) were transferred to sterile, porous Millicell-CM inserts (0.4 mm). Each culture insert unit contained two brain slices and was placed into individual wells of a 12-well culture tray in 2 ml medium: 50% MEM with Earl's salts, 2 mM L-glutamine, 25% Earl's balanced salt solution, 6.5 g/l D-glucose, 20% fetal bovine serum (FBS), 5% horse serum, 25 mM HEPES buffer, pH 7.2, and […] streptomycin and […] penicillin. Cultures were kept in an incubator for 2 days at 36° C. in 5% CO2 to minimize the impact of injury from slice preparation.
On the day of experiment, medium was removed, the brain slices rinsed and incubated in 0.1% FBS-containing medium for 4 hours at 36° C. in 5% CO2. Brain slices were then cultured with 100 nM Ab42 and/or 0.1, 1 nM compound C0105 or compound C0114 in fresh 0.1% FBS-containing medium for 16 hours. […]
The levels of phosphorylated tau (pSer202tau, pThr231tau and pThr181tau) as well as total tau precipitated (loading controls) are assessed by Western blotting using specific antibodies directed against each of the phosphor-epitopes and the anti-tau, respectively.

T1 sequence (P33535 whole entry): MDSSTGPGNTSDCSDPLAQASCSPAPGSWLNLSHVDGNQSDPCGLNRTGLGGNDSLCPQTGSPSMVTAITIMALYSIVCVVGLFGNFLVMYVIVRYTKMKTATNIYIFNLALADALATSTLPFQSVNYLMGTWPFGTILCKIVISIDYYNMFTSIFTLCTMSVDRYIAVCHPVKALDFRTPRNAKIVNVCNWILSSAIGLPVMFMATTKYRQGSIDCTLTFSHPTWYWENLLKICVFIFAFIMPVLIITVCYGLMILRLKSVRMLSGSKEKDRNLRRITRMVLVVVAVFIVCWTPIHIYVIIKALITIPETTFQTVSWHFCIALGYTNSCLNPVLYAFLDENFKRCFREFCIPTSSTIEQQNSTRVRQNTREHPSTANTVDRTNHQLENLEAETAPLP

CN1CCC2(CC1)NCC(=O)N2Cc1ccccc1 [Compound C0105M]
MOR agonist activity ([35S]GTPgS binding to Gao) (mu opiate receptor (MOR); 0.1 μM compound as agonist): 198.1% | MOR agonist activity ([35S]GTPgS binding to Gao) (mu opiate receptor (MOR); 1 μM + BFNA): 73.1% | MOR agonist activity ([35S]GTPgS binding to Gao) (mu opiate receptor (MOR); 1 μM compound as agonist): 220.3% | Phosphorylation of tau at all three phosphorylation sites (tau): dramatically reduces phosphorylation of tau

Source: patent US20220233512A1, “INHIBITING AN IMMUNE RESPONSE MEDIATED BY ONE OR MORE OF TLR2, RAGE, CCR5, CXCR4 AND CD4” (priority 2020, published 2022)
